{"source": "PubChem BioAssay (NCI)", "note": "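Step 1: Grow cells in 96-well plates. Step 2: Expose to compound for 48 hours at 5 concentrations. Step 3: Interpolate endpoints linearly; if unreached, use highest concentration. GI50 is the concentration that inhibits growth by half. Definition used: TGI = concentration required for complete inhibition of growth.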", "data": [{"test_system": "M14 melanoma", "assay": "NCI tumour cell line growth inhibition, 48 h", "units": {"GI50": "µM", "TGI": "µM"}, "values": [{"smiles": "CC(C)=CCCC(C)c1ccc(C)c2c1OCN(CC1CCNCC1)C2", "note": "(centres undefined)", "GI50": 10.2, "TGI": 24.5}, {"smiles": "COc1ccc(N2C(=O)CC(Cl)C2=O)cc1", "note": "(centres undefined)", "TGI": "> 100"}, {"smiles": "O=C(/C=C/c1ccc(F)cc1)c1ccc(Cl)cc1Cl", "GI50": "> 100", "TGI": "> 100"}]}, {"test_system": "MDA-MB-231 breast", "assay": "NCI tumour cell line growth inhibition, 48 h", "units": {"TGI": "µM", "GI50": "µM"}, "values": [{"smiles": "N=c1oc2ccc([N+](=O)[O-])cc2cc1C(=O)NCc1ccccc1", "TGI": 60.9}, {"smiles": "COc1cc(C(=O)/C(C)=C/c2c[nH]c3ccccc23)cc(OC)c1OC", "GI50": 0.0039, "TGI": "> 100"}, {"smiles": "CC(C)=CCCC(C)c1ccc(C)c2c1OCN(CC1CCNCC1)C2", "note": "(centres undefined)", "GI50": 12.5, "TGI": 28.3}, {"smiles": "COc1ccc(N2C(=O)CC(Cl)C2=O)cc1", "note": "(centres undefined)", "TGI": 36.5}, {"smiles": "O=C(/C=C/c1ccc(F)cc1)c1ccc(Cl)cc1Cl", "GI50": "> 100", "TGI": "> 100"}]}, {"test_system": "HOP-92 NSCLC", "assay": "NCI tumour cell line growth inhibition, 48 h", "units": {"TGI": "µM", "GI50": "µM"}, "values": [{"smiles": "N=c1oc2ccc([N+](=O)[O-])cc2cc1C(=O)NCc1ccccc1", "TGI": 36.7}, {"smiles": "COc1cc(C(=O)/C(C)=C/c2c[nH]c3ccccc23)cc(OC)c1OC", "GI50": 0.074, "TGI": 2.33}, {"smiles": "COc1ccc(N2C(=O)CC(Cl)C2=O)cc1", "note": "(centres undefined)", "TGI": 73.7}, {"smiles": "O=C(/C=C/c1ccc(F)cc1)c1ccc(Cl)cc1Cl", "GI50": 30, "TGI": 80.8}]}, {"test_system": "HT29 colon", "assay": "NCI tumour cell line growth inhibition, 48 h", "units": {"TGI": "µM", "GI50": "µM"}, "values": [{"smiles": "N=c1oc2ccc([N+](=O)[O-])cc2cc1C(=O)NCc1ccccc1", "TGI": 40.7}, {"smiles": "COc1cc(C(=O)/C(C)=C/c2c[nH]c3ccccc23)cc(OC)c1OC", "GI50": 0.00402}, {"smiles": "CC(C)=CCCC(C)c1ccc(C)c2c1OCN(CC1CCNCC1)C2", "note": "(centres undefined)", "GI50": 3, "TGI": 8.38}, {"smiles": "COc1ccc(N2C(=O)CC(Cl)C2=O)cc1", "note": "(centres undefined)", "TGI": 31.7}]}, {"test_system": "HCT-116 colon", "assay": "NCI tumour cell line growth inhibition, 48 h", "units": {"TGI": "µM", "GI50": "µM"}, "values": [{"smiles": "N=c1oc2ccc([N+](=O)[O-])cc2cc1C(=O)NCc1ccccc1", "TGI": 32}, {"smiles": "COc1cc(C(=O)/C(C)=C/c2c[nH]c3ccccc23)cc(OC)c1OC", "GI50": 0.00359, "TGI": "> 100"}, {"smiles": "CC(C)=CCCC(C)c1ccc(C)c2c1OCN(CC1CCNCC1)C2", "note": "(centres undefined)", "GI50": 7.17, "TGI": 21.7}, {"smiles": "COc1ccc(N2C(=O)CC(Cl)C2=O)cc1", "note": "(centres undefined)", "TGI": 32.2}, {"smiles": "O=C(/C=C/c1ccc(F)cc1)c1ccc(Cl)cc1Cl", "GI50": 16.6, "TGI": 31.3}]}, {"test_system": "PC-3 prostate", "assay": "NCI tumour cell line growth inhibition, 48 h", "units": {"TGI": "µM", "GI50": "µM"}, "values": [{"smiles": "N=c1oc2ccc([N+](=O)[O-])cc2cc1C(=O)NCc1ccccc1", "TGI": 40.3}, {"smiles": "COc1cc(C(=O)/C(C)=C/c2c[nH]c3ccccc23)cc(OC)c1OC", "GI50": 0.00789, "TGI": "> 100"}, {"smiles": "CC(C)=CCCC(C)c1ccc(C)c2c1OCN(CC1CCNCC1)C2", "note": "(centres undefined)", "GI50": 16.5, "TGI": 42.1}, {"smiles": "COc1ccc(N2C(=O)CC(Cl)C2=O)cc1", "note": "(centres undefined)", "TGI": "> 100"}, {"smiles": "O=C(/C=C/c1ccc(F)cc1)c1ccc(Cl)cc1Cl", "GI50": 31.3, "TGI": 96.8}]}, {"test_system": "KM12 colon", "assay": "NCI tumour cell line growth inhibition, 48 h", "units": {"TGI": "µM", "GI50": "µM"}, "values": [{"smiles": "N=c1oc2ccc([N+](=O)[O-])cc2cc1C(=O)NCc1ccccc1", "TGI": 36.7}, {"smiles": "COc1cc(C(=O)/C(C)=C/c2c[nH]c3ccccc23)cc(OC)c1OC", "GI50": 0.00359}, {"smiles": "CC(C)=CCCC(C)c1ccc(C)c2c1OCN(CC1CCNCC1)C2", "note": "(centres undefined)", "GI50": 12.3, "TGI": 26}, {"smiles": "O=C(/C=C/c1ccc(F)cc1)c1ccc(Cl)cc1Cl", "GI50": 38.1, "TGI": "> 100"}]}, {"test_system": "HL-60(TB) leukemia", "assay": "NCI tumour cell line growth inhibition, 48 h", "units": {"TGI": "µM", "GI50": "µM"}, "values": [{"smiles": "N=c1oc2ccc([N+](=O)[O-])cc2cc1C(=O)NCc1ccccc1", "TGI": "> 100"}, {"smiles": "COc1cc(C(=O)/C(C)=C/c2c[nH]c3ccccc23)cc(OC)c1OC", "GI50": 0.00228, "TGI": 0.00652}, {"smiles": "CC(C)=CCCC(C)c1ccc(C)c2c1OCN(CC1CCNCC1)C2", "note": "(centres undefined)", "GI50": 3.9, "TGI": 18.9}]}, {"test_system": "HS 578T breast", "assay": "NCI tumour cell line growth inhibition, 48 h", "units": {"TGI": "µM", "GI50": "µM"}, "values": [{"smiles": "N=c1oc2ccc([N+](=O)[O-])cc2cc1C(=O)NCc1ccccc1", "TGI": 42.9}, {"smiles": "COc1cc(C(=O)/C(C)=C/c2c[nH]c3ccccc23)cc(OC)c1OC", "GI50": 0.00478, "TGI": 48}]}]}
